The values that follow come from patent US8895745B2, “Bicyclic heterocyclic compounds as FGFR inhibitors” (Astex Therapeutics Limited, priority 2006, dated 2014).

Structures can show the parent of a compound that is named as a salt.

The first test has as its system LP-1 cell line. Put plainly: Cell-based pERK ELISA method, LP-1 cells. Particulars: Homo sapiens, LP-1, read-out: IC50 less than 1 μM or at least 50% inhibition at a concentration of 1 μM, LP-1 pERK ELISA. Background: An ELISA detects its analyte on a solid surface through an enzyme-linked reagent.
Description: LP-1 or JIM-1 multiple myeloma cells were seeded in 96 well plates at 1×10^6 cells/ml in 200 ul per well in serum free media. […] Cells were incubated for 16 h at 37° C. prior to the addition of a test compound for 30 minutes. Test compounds were administered at a 0.1% final DMSO concentration. […] ELISA plates and standards were prepared according o the standard DuoSet protocols and the relative amounts of pERK to total ERK in each sample calculated according to the standard curve.
In particular, compounds of the invention were tested against the LP-1 cell line (DSMZ no.: ACC 41) derived from human multiple myeloma.
Regarding `O=C(NCC(F)(F)F)Nc1cccc(-c2cnc3cc(-c4ccc5c(c4)OCO5)ccn23)c1` [Example 141, Hydrochloride], the IC50 is under 1 µM.

As to `O=C(NCC(F)(F)F)Nc1cccc(-n2cnc3cc(-c4ccc(F)cc4)cnc32)c1` [Example 179], the IC50 was under 1 µM.

In the case of `COC1CCCN(c2ccn3c(-c4cccc(NC(=O)NCC(F)(F)F)c4)cnc3c2)C1` (racemic) [Example 203, (±)-1-{3-[7-(3-Methoxy-piperidin-1-yl)-imidazo[1,2-a]pyridin-3-yl]-phenyl}-3-(2,2,2-trifluoro-ethyl)-urea], the IC50 is under 1 µM.

With `CCOc1ccn2c(-c3cccc(NC(=O)NCC(F)(F)F)c3)cnc2c1` [Example 337, 1-[3-(7-Ethoxy-imidazo[1,2-a]pyridin-3-yl)-phenyl]-3-(2,2,2-trifluoro-ethyl)-urea Formate], the IC50 was under 1 µM.

With `CCNC(=O)Nc1cccc(-c2cnc3cc(-c4ccc(N5CCOCC5)nc4)ccn23)c1` [Example 49, 1-Ethyl-3-{3-[7-(6-morpholin-4-yl-pyridin-3-yl)-imidazo[1,2-a]pyridin-3-yl]-phenyl}-urea formate salt], the IC50 was under 1 µM.

Turning to `CCNC(=O)Nc1cccc(-c2cnc3cc(-c4ccc(CCN5CCOCC5)cc4)ccn23)c1` [Example 56, 1-Ethyl-3-(3-{7-[4-(2-morpholin-4-yl-ethyl)-phenyl]-imidazo[1,2-a]pyridin-3-yl}-phenyl)-urea hydro-chloride salt], the IC50 is under 1 µM.

For the molecule `O=C1CN(Cc2cccc(-c3ccn4c(-c5cccc(NC(=O)NCC(F)(F)F)c5)cnc4c3)c2)CCN1` [Example 206, 1-(3-{7-[3-(3-Oxo-piperazin-1-ylmethyl)-phenyl]-imidazo[1,2-a]pyridin-3-yl}-phenyl)-3-(2,2,2-trifluoro-ethyl)-urea], the IC50 was under 1 µM.

Consider `CNC(=O)/C=C/c1ccn2c(-c3cccc(NC(=O)NCC(F)(F)F)c3)cnc2c1` [Example 344, (E)-N-Methyl-3-(3-{3-[3-(2,2,2-trifluoro-ethyl)-ureido]-phenyl}-imidazo[1,2-a]pyridin-7-yl)-acrylamide], for which the IC50 was under 1 µM.

As for `O=C(NCC(F)(F)F)Nc1cccc(-c2cnc3cc(-c4cccc(Cl)c4)ccn23)c1` [Example 278], the IC50 is under 1 µM.

Turning to `Cn1cc(-c2cnc3c(-c4cccc(NC(=O)NCC(F)(F)F)c4)cnn3c2)ccc1=O` [Example 158, 1-{3-[6-(1-Methyl-6-oxo-1,6-dihydro-pyridin-3-yl)-pyrazolo[1,5-a]pyrimidin-3-yl]-phenyl}-3-(2,2,2-trifluoro-ethyl)-urea], the IC50 is under 1 µM.

Consider `CS(=O)(=O)NCc1cccc(-c2ccn3c(-c4cccc(NC(=O)NCC(F)(F)F)c4)cnc3c2)c1` [Example 239, N-[3-(3-{3-[3-(2,2,2-Trifluoro-ethyl)-ureido]-phenyl}-imidazo[1,2-a]pyridin-7-yl)-benzyl]-methane-sulfonamide], for which the IC50 was under 1 µM.

Turning to `O=C(NCC(F)(F)F)Nc1cccc(-c2cnc3cc(-c4ccc(Cl)cc4)ccn23)c1` [Example 273, 1-{3-[7-(4-Chloro-phenyl)-imidazo[1,2-a]pyridin-3-yl]-phenyl}-3-(2,2,2-trifluoro-ethyl)-urea], the IC50 is under 1 µM.

Take `CCNC(=O)Nc1cccc(-c2cnc3cc(-c4ccc(N5CCNCC5)cc4)ccn23)c1` [Example 57, 1-Ethyl-3-{3-[7-(4-piperazin-1-yl-phenyl)-imidazo[1,2-a]pyridin-3-yl]-phenyl}-urea hydro-chloride salt]: the IC50 was under 1 µM.

For `CCNC(=O)Nc1cccc(-c2cnc3cc(-c4cccc(CN5CCCCC5)c4)ccn23)c1` [Example 35, 1-Ethyl-3-{3-[7-(3-piperidin-1-ylmethyl-phenyl)-imidazo[1,2-a]pyridin-3-yl]-phenyl}-urea], the IC50 is under 1 µM.

On to `NCC(=O)Nc1cccc(-c2cnc3cc(-c4ccc(F)cc4)ccn23)c1` [Example 67, 2-Amino-N-{3-[7-(4-fluoro-phenyl)-imidazo[1,2-a]pyridin-3-yl]-phenyl}-acetamide formate salt], for which the IC50 was under 1 µM.

For `O=C(NCC(F)(F)F)Nc1cccc(-c2cnc3cc(-c4cccc(C(=O)N5CCNCC5)c4)ccn23)c1` [Example 250, 1-(3-{7-[3-(Piperazine-1-carbonyl)-phenyl]-imidazo[1,2-a]pyridin-3-yl}-phenyl)-3-(2,2,2-trifluoro-ethyl)-urea hydrochloride], the IC50 is under 1 µM.

In the case of `O=C(NCC(F)(F)F)Nc1cccc(-c2cnc3cc(-c4cccc(CO)c4)ccn23)c1` [Example 219, 1-{3-[7-(3-Hydroxy-methyl-phenyl)-imidazo[1,2-a]pyridin-3-yl]-phenyl}-3-(2,2,2-trifluoro-ethyl)-urea], the IC50 was under 1 µM.

In the case of `O=C(NCC(F)(F)F)Nc1ccc(F)c(-c2cnc3cc(-c4ccc(F)cc4)ccn23)c1` [Example 253, 1-{4-Fluoro-3-[7-(4-fluoro-phenyl)-imidazo[1,2-a]pyridin-3-yl]-phenyl}-3-(2,2,2-trifluoro-ethyl)-urea], the IC50 was under 1 µM.

For `O=C(NCC(F)(F)F)Nc1cccc(-c2cnc3cc(-c4ccc(Cl)c(F)c4)ccn23)c1` [Example 280, 1-{3-[7-(4-Chloro-3-fluoro-phenyl)-imidazo[1,2-a]pyridin-3-yl]-phenyl}-3-(2,2,2-trifluoro-ethyl)-urea], the IC50 was under 1 µM.

Regarding `CCNC(=O)Nc1cccc(-c2cnc3cc(-c4ccnc(OC)c4)ccn23)c1` [Example 45, 1-Ethyl-3-{3-[7-(2-methoxy-pyridin-4-yl)-imidazo[1,2-a]pyridin-3-yl]-phenyl}-urea], the IC50 is under 1 µM.

As to `O=C(NCC(F)(F)F)Nc1cccc(-c2cnc3cc(-c4ccc(C5CNCCN5)cc4)ccn23)c1` (stereo not drawn) [Example 296, 1-{3-[7-(4-Piperazin-2-yl-phenyl)-imidazo[1,2-a]pyridin-3-yl]-phenyl}-3-(2,2,2-trifluoro-ethyl)-urea hydrochloride], the IC50 was under 1 µM.

In the case of `COc1ncc(-c2cnc3c(-c4cccc(NC(=O)NCC(F)(F)F)c4)cnn3c2)cn1` [Example 151, 1-{3-[6-(2-Methoxy-pyrimidin-5-yl)-pyrazolo[1,5-a]pyrimidin-3-yl]-phenyl}-3-(2,2,2-trifluoro-ethyl)-urea], the IC50 was under 1 µM.

Consider `CC(=O)Nc1cccc(-c2cnc3ccc(-c4csc5ccccc45)cn23)c1` [Example 103, N-[3-(6-Benzo[b]thiophen-3-yl-imidazo[1,2-a]pyridin-3-yl)-phenyl]-acetamide], for which the IC50 was under 1 µM.

Take `CCNC(=O)Nc1cccc(-n2cnc3cc(-c4ccc(F)cc4)ccc32)c1` [Example 159, 1-Ethyl-3-{3-[5-(4-fluoro-phenyl)-benzoimidazol-1-yl]-phenyl}-urea Hydrochloride]: the IC50 is under 1 µM.

Consider `CC(=O)Nc1cccc(-c2cnc3cc(-c4ccnc(N5CCN(C)CC5)c4)ccn23)c1` [Example 62, N-(3-{7-[2-(4-Methyl-piperazin-1-yl)-pyridin-4-yl]-imidazo[1,2-a]pyridin-3-yl}-phenyl)-acetamide], for which the IC50 is under 1 µM.

Regarding `COc1cc(NC(C)=O)cc(-c2cnc3cc(-c4cccc(CN5CCOCC5)c4)ccn23)c1` [Example 78, N-{3-Methoxy-5-[7-(3-morpholin-4-ylmethyl-phenyl)-imidazo[1,2-a]pyridin-3-yl]-phenyl}-acetamide], the IC50 is under 1 µM.

On to `CC(C)(O)c1ccc(-c2ccn3c(-c4cccc(NC(=O)NCC(F)(F)F)c4)cnc3c2)cn1` [Example 351, 1-(3-{7-[6-(1-Hydroxy-1-methyl-ethyl)-pyridin-3-yl]-imidazo[1,2-a]pyridin-3-yl}-phenyl)-3-(2,2,2-trifluoro-ethyl)-urea], for which the IC50 was under 1 µM.

On to `COc1cc(NC(=O)NCC(F)(F)F)cc(-c2cnc3cc(-c4ccc(F)cc4)ccn23)c1` [Example 217, 1-{3-[7-(4-Fluoro-phenyl)-imidazo[1,2-a]pyridin-3-yl]-5-methoxy-phenyl}-3-(2,2,2-trifluoro-ethyl)-urea], for which the IC50 is under 1 µM.

As to `CCNC(=O)Nc1cccc(-c2cnc3cc(-c4ccc(C(=O)N5CCN(C)CC5)cc4)ccn23)c1` [Example 81, 1-Ethyl-3-(3-{7-[4-(4-methyl-piperazine-1-carbonyl)-phenyl]-imidazo[1,2-a]pyridin-3-yl}-phenyl)-urea], the IC50 was under 1 µM.

In the case of `Cc1ccn2c(-c3cccc(NC(=O)NCC(F)(F)F)c3)cnc2c1` [Example 225], the IC50 is under 1 µM.

As for `Cn1cc(-c2cnc3c(-c4cncc(NC(=O)NCC(F)(F)F)c4)cnn3c2)cn1` [Example 349, 1-{5-[6-(1-Methyl-1H-pyrazol-4-yl)-pyrazolo[1,5-a]pyrimidin-3-yl]-pyridin-3-yl}-3-(2,2,2-trifluoro-ethyl)-urea], the IC50 was under 1 µM.

The same test, now with this note: Homo sapiens, LP-1, read-out: LP-1 pERK ELISA (μM).
Take `O=C(NCC(F)(F)F)Nc1cccc(-c2cnc3cc(-c4nncs4)ccn23)c1` [Example 384, 1-[3-(7-[1,3,4]Thiadiazol-2-yl-imidazo[1,2-a]pyridin-3-yl)-phenyl]-3-(2,2,2-trifluoro-ethyl)-urea]: the IC50 came out at 0.019 µM.

With `Cc1c(-c2ccn3c(-c4cccc(NC(=O)NCC(F)(F)F)c4)cnc3c2)nnn1C` [Example 378, 1-{3-[7-(1,5-Dimethyl-1H-[1,2,3]triazol-4-yl)-imidazo[1,2-a]pyridin-3-yl]-phenyl}-3-(2,2,2-trifluoro-ethyl)-urea formate], the IC50 was 0.016 µM.

Consider `Cc1nnc(-c2ccn3c(-c4cccc(NC(=O)NCC(F)(F)F)c4)cnc3c2)s1` [Example 310, 1-{3-[7-(5-Methyl-[1,3,4]-thiadiazol-2-yl)-imidazo[1,2-a]pyridin-3-yl]-phenyl}-3-(2,2,2-trifluoro-ethyl)-urea], for which the IC50 turned out to be 0.0042 µM.

In the case of `O=C(NCC(F)(F)F)Nc1cccc(-c2cnc3cc(-c4ccc(F)cc4)ccn23)c1` [Example 59, 1-{3-[7-(4-fluoro-phenyl)-imidazo[1,2-a]pyridin-3-yl]-phenyl}-3-(2,2,2-trifluoro-ethyl)-urea], the IC50 is 0.0021 µM.

As to `Cc1nsc(-c2ccn3c(-c4cccc(NC(=O)NCC(F)(F)F)c4)cnc3c2)n1` [Example 399, 1-{3-[7-(3-Methyl-[1,2,4]thiadiazol-5-yl)-imidazo[1,2-a]pyridin-3-yl]-phenyl}-3-(2,2,2-trifluoro-ethyl)-urea], the IC50 was determined as 0.022 µM.
